Assays:
Test in all cases: KINOMEscan competition binding
Conditions in all cases: compound 10.0 µM
CAMK2A (human) = CAMK2A (human) (UniProt Q9UQM7)
CAMKK1 (human) = CAMKK1 (human) (UniProt Q8N5S9)
CAMKK2 (human) = CAMKK2 (human) (UniProt Q96RR4)
CDC42BPG (human) = CDC42BPG (human) (UniProt Q6DT37)
CDK8 (human) = CDK8 (human) (UniProt P49336)
CHEK1 (human) = CHEK1 (human) (UniProt O14757)
CHUK (human) = CHUK (human) (UniProt O15111)
CLK1 (human) = CLK1 (human) (UniProt P49759)
CLK2 (human) = CLK2 (human) (UniProt P49760)
CaMK1 (human) = CaMK1 (human) (UniProt Q14012)
DCLK1 (human) = DCLK1 (human) (UniProt O15075)
DYRK2 (human) = DYRK2 (human) (UniProt Q92630)
[1] = system: EGFR (human), P00533 [T790M/L858R]
EPHB4 (human) = EPHB4 (human) (UniProt P54760)
ERBB4 (human) = ERBB4 (human) (UniProt Q15303)
FLT4 (human) = FLT4 (human) (UniProt P35916)
FRK (human) = FRK (human) (UniProt P42685)
Sequence of FRK (human) (P42685 whole entry, looked up): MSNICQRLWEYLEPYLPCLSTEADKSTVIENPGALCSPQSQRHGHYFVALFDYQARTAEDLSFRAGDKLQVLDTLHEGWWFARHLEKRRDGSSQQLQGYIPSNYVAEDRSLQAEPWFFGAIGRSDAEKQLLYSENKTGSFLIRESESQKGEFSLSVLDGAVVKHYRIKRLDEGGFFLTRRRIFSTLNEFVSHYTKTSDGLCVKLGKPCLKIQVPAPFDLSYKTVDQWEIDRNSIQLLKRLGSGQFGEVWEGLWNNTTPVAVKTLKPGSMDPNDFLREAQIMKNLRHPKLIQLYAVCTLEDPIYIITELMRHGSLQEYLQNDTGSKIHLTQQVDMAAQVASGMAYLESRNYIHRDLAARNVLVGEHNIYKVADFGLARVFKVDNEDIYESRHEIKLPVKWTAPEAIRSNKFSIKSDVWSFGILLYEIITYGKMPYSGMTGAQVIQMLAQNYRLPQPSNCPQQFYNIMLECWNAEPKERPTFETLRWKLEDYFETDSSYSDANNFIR

GRK1 (human) = GRK1 (human) (UniProt Q15835)
Sequence of GRK1 (human) (Q15835 whole entry, looked up): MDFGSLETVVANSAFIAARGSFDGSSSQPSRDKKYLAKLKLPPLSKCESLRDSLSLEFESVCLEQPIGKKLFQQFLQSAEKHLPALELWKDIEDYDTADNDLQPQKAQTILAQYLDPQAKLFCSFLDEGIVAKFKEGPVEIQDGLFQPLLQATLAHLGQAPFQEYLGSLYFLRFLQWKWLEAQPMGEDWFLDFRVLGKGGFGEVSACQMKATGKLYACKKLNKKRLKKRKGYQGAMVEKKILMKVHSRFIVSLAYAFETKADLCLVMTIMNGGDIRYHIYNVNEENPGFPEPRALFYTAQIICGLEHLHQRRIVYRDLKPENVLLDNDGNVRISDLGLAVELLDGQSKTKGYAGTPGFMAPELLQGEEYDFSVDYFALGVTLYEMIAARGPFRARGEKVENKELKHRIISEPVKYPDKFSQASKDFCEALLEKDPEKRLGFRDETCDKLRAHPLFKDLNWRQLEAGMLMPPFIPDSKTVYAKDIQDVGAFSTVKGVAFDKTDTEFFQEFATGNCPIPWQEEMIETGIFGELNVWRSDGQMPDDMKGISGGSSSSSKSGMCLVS

IKBKB (human) = IKBKB (human) (UniProt O14920)
IRAK4 (human) = IRAK4 (human) (UniProt Q9NWZ3)
Sequence of IRAK4 (human) (Q9NWZ3 whole entry, looked up): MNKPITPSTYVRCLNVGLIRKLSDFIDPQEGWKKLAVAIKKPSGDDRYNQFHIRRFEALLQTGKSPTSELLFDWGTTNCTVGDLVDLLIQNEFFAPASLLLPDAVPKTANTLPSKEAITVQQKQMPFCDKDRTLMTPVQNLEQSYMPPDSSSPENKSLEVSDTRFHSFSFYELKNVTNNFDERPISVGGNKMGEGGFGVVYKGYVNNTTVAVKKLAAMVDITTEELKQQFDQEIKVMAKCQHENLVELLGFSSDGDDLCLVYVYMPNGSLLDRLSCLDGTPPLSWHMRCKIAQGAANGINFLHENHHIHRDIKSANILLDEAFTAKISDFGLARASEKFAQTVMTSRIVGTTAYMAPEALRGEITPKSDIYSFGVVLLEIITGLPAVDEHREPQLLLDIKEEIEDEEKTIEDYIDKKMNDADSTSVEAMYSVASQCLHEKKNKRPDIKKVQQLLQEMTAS

[2] = target: JAK1 JH1 catalytic (human) (UniProt P23458)
[3] = target: JAK3 JH1 catalytic (human) (UniProt P52333)
Sequence of JAK3 JH1 catalytic (human) (P52333 whole entry, looked up): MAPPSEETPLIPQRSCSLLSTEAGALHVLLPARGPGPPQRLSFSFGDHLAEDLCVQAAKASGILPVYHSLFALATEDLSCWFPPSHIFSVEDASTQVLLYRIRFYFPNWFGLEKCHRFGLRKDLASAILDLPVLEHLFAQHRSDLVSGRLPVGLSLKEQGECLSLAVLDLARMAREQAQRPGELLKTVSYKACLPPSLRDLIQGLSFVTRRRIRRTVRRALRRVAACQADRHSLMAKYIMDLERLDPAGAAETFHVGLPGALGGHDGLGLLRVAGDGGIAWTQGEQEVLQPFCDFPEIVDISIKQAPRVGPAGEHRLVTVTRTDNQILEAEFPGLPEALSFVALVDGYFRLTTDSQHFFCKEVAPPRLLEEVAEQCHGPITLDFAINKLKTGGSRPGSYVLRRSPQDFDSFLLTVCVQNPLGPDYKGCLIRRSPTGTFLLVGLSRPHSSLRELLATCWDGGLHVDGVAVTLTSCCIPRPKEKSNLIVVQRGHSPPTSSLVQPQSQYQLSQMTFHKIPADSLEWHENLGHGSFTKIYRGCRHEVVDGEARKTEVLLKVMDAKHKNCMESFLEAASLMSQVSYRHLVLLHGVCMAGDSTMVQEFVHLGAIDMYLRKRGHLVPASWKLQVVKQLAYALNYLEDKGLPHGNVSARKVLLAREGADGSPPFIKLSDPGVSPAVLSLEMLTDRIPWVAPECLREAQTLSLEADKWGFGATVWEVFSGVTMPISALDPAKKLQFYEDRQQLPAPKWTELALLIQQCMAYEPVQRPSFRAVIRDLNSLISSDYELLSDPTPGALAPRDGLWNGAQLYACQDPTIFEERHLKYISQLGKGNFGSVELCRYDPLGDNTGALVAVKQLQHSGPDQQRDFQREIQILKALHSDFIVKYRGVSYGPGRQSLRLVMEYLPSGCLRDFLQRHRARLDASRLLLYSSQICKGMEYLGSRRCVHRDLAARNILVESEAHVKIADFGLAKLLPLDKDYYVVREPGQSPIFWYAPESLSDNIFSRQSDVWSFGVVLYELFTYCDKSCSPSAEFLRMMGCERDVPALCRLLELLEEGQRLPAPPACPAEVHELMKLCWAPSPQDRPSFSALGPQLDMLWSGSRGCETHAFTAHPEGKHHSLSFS

MAP4K1 (human) = MAP4K1 (human) (UniProt Q92918)
MAPK6 (human) = MAPK6 (human) (UniProt Q16659)
MYLK (human) = MYLK (human) (UniProt Q15746)
NEK6 (human) = NEK6 (human) (UniProt Q9HC98)
NLK (human) = NLK (human) (UniProt Q9UBE8)
PAK2 (human) = PAK2 (human) (UniProt Q13177)
PIM1 (human) = PIM1 (human) (UniProt P11309)
PIM3 (human) = PIM3 (human) (UniProt Q86V86)
PLK1 (human) = PLK1 (human) (UniProt P53350)
PRKAA2 (human) = PRKAA2 (human) (UniProt P54646)
RPS6KA4 KD2 (human) = RPS6KA4 KD2 (human) (UniProt O75676)
SBK1 (human) = SBK1 (human) (UniProt Q52WX2)
STK11 (human) = STK11 (human) (UniProt Q15831)
STK32A (human) = STK32A (human) (UniProt Q8WU08)
STK35 (human) = STK35 (human) (UniProt Q8TDR2)
TAOK1 (human) = TAOK1 (human) (UniProt Q7L7X3)
TAOK2 (human) = TAOK2 (human) (UniProt Q9UL54)
TEK (human) = TEK (human) (UniProt Q02763)

Sequence of CAMK2A (human) (Q9UQM7 whole entry, looked up): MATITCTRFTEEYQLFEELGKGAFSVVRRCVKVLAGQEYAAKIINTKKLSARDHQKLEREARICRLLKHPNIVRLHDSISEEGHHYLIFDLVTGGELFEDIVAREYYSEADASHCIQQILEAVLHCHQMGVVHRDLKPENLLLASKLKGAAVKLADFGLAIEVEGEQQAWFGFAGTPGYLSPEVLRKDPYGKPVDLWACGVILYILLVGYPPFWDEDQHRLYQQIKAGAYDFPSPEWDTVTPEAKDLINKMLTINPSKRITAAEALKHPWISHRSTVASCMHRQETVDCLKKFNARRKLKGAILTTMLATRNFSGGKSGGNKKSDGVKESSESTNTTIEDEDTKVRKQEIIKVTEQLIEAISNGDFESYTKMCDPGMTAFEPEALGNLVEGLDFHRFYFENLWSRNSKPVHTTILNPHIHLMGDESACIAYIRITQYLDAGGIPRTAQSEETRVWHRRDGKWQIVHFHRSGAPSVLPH
Sequence of CDC42BPG (human) (Q6DT37 whole entry, looked up): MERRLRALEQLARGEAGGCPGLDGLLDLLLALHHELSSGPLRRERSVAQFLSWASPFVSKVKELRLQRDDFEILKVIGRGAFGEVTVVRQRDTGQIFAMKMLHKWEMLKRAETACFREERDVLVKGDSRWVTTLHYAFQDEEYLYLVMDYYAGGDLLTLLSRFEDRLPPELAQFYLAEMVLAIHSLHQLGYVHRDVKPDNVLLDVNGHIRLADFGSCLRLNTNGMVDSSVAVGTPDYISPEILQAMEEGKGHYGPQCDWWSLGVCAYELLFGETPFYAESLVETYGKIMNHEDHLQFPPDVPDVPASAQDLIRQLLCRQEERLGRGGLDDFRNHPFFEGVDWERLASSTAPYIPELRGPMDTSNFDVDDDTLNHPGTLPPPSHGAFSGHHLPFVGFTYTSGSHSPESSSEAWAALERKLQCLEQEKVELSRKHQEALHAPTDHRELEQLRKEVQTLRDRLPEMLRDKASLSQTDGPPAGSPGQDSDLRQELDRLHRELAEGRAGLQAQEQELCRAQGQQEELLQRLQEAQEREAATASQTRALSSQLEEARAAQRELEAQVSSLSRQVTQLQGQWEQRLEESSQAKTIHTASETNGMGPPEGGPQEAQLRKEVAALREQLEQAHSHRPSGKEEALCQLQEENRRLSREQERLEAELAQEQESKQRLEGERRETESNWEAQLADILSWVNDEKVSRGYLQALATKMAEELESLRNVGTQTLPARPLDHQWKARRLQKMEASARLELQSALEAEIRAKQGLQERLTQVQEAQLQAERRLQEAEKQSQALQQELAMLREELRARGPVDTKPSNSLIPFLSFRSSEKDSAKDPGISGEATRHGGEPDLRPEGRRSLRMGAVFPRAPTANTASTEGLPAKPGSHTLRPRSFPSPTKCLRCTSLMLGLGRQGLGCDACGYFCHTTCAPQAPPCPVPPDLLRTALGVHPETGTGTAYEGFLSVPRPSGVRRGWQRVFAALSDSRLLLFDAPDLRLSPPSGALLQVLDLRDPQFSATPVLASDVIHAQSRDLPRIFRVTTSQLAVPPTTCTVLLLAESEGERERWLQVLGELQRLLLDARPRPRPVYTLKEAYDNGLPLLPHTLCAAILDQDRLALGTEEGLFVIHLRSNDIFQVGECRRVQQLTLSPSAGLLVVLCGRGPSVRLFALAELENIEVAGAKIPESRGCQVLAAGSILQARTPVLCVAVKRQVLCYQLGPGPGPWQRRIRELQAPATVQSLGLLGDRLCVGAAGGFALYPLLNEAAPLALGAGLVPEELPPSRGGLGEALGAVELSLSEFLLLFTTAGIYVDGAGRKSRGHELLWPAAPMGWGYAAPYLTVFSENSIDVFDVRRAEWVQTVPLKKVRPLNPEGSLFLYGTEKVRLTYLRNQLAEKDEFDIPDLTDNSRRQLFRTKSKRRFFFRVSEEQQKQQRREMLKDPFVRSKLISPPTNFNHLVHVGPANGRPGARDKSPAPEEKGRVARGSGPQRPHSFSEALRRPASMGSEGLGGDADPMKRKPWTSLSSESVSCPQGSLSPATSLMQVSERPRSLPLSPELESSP

SMILES | kinase still bound, per cent of control (CAMK2A (human)) [%] | kinase still bound, per cent of control (CAMKK1 (human)) [%] | kinase still bound, per cent of control (CAMKK2 (human)) [%] | kinase still bound, per cent of control (CDC42BPG (human)) [%] | kinase still bound, per cent of control (CDK8 (human)) [%] | kinase still bound, per cent of control (CHEK1 (human)) [%] | kinase still bound, per cent of control (CHUK (human)) [%] | kinase still bound, per cent of control (CLK1 (human)) [%] | kinase still bound, per cent of control (CLK2 (human)) [%] | kinase still bound, per cent of control (CaMK1 (human)) [%] | kinase still bound, per cent of control (DCLK1 (human)) [%] | kinase still bound, per cent of control (DYRK2 (human)) [%] | kinase still bound, per cent of control [1] [%] | kinase still bound, per cent of control (EPHB4 (human)) [%] | kinase still bound, per cent of control (ERBB4 (human)) [%] | kinase still bound, per cent of control (FLT4 (human)) [%] | kinase still bound, per cent of control (FRK (human)) [%] | kinase still bound, per cent of control (GRK1 (human)) [%] | kinase still bound, per cent of control (IKBKB (human)) [%] | kinase still bound, per cent of control (IRAK4 (human)) [%] | also measured
CCN1CCN(C(=O)Cc2ccc(Nc3ncc(F)c(Nc4ccc(C(=O)Nc5ccccc5Cl)cc4)n3)cc2)CC1 | 68 | 25 | 48 | 66 | 46 | 100 | 84 | 22 | 4.9 | 14 | 74 | 18 | 76 | 76 | 53 | 7.6 | 28 | 100 | 27 | 100 | kinase still bound, per cent of control [2]: 6.9%; kinase still bound, per cent of control [3]: 3.7%; kinase still bound, per cent of control (MAP4K1 (human)): 38%; kinase still bound, per cent of control (MAPK6 (human)): 21%; kinase still bound, per cent of control (MYLK (human)): 57%; kinase still bound, per cent of control (NEK6 (human)): 8.4%; kinase still bound, per cent of control (NLK (human)): 98%; kinase still bound, per cent of control (PAK2 (human)): 56%; kinase still bound, per cent of control (PIM1 (human)): 60%; kinase still bound, per cent of control (PIM3 (human)): 67%; kinase still bound, per cent of control (PLK1 (human)): 94%; kinase still bound, per cent of control (PRKAA2 (human)): 39%; kinase still bound, per cent of control (RPS6KA4 KD2 (human)): 100%; kinase still bound, per cent of control (SBK1 (human)): 75%; kinase still bound, per cent of control (STK11 (human)): 12%; kinase still bound, per cent of control (STK32A (human)): 100%; kinase still bound, per cent of control (STK35 (human)): 91%; kinase still bound, per cent of control (TAOK1 (human)): 62%; kinase still bound, per cent of control (TAOK2 (human)): 56%; kinase still bound, per cent of control (TEK (human)): 48%
COc1cc2ncnc(-n3nc(-c4ccccn4)nc3N)c2cc1OC | 44 | 17 | 9.1 | 96 | 100 | 100 | 44 | 0.6 | 1.8 | 31 | 36 | 0.25 | 84 | 22 | 59 | 14 | 19 | 41 | 45 | 5.8 | kinase still bound, per cent of control [2]: 100%; kinase still bound, per cent of control [3]: 33%; kinase still bound, per cent of control (MAP4K1 (human)): 56%; kinase still bound, per cent of control (MAPK6 (human)): 85%; kinase still bound, per cent of control (MYLK (human)): 0.8%; kinase still bound, per cent of control (NEK6 (human)): 0.15%; kinase still bound, per cent of control (NLK (human)): 6.6%; kinase still bound, per cent of control (PAK2 (human)): 37%; kinase still bound, per cent of control (PIM1 (human)): 15%; kinase still bound, per cent of control (PIM3 (human)): 7.6%; kinase still bound, per cent of control (PLK1 (human)): 22%; kinase still bound, per cent of control (PRKAA2 (human)): 27%; kinase still bound, per cent of control (RPS6KA4 KD2 (human)): 0.6%; kinase still bound, per cent of control (SBK1 (human)): 100%; kinase still bound, per cent of control (STK11 (human)): 100%; kinase still bound, per cent of control (STK32A (human)): 64%; kinase still bound, per cent of control (STK35 (human)): 24%; kinase still bound, per cent of control (TAOK1 (human)): 3.2%; kinase still bound, per cent of control (TAOK2 (human)): 42%; kinase still bound, per cent of control (TEK (human)): 45%
CN(C)C/C=C/C(=O)Nc1ccc(C(=O)Nc2cccc(Nc3nccc(-c4cccnc4)n3)c2)cc1 | 54 | 52 | 16 | 76 | 78 | 100 | 54 | 4.6 | 2.2 | 94 | 98 | 29 | 100 | 100 | 100 | 97 | 100 | 98 | 65 | 34 | kinase still bound, per cent of control [2]: 100%; kinase still bound, per cent of control [3]: 10%; kinase still bound, per cent of control (MAP4K1 (human)): 100%; kinase still bound, per cent of control (MAPK6 (human)): 7.4%; kinase still bound, per cent of control (MYLK (human)): 64%; kinase still bound, per cent of control (NEK6 (human)): 2.8%; kinase still bound, per cent of control (NLK (human)): 82%; kinase still bound, per cent of control (PAK2 (human)): 76%; kinase still bound, per cent of control (PIM1 (human)): 95%; kinase still bound, per cent of control (PIM3 (human)): 78%; kinase still bound, per cent of control (PLK1 (human)): 100%; kinase still bound, per cent of control (PRKAA2 (human)): 95%; kinase still bound, per cent of control (RPS6KA4 KD2 (human)): 80%; kinase still bound, per cent of control (SBK1 (human)): 100%; kinase still bound, per cent of control (STK11 (human)): 83%; kinase still bound, per cent of control (STK32A (human)): 95%; kinase still bound, per cent of control (STK35 (human)): 80%; kinase still bound, per cent of control (TAOK1 (human)): 28%; kinase still bound, per cent of control (TAOK2 (human)): 70%; kinase still bound, per cent of control (TEK (human)): 94%

Reference: the kinase profiling compilation of Christmann-Franck et al. (2016)
